Test results from the supplement of paper PMC11208160.

assay: recombinant barcode read abundance after kanamycin selection (control-corrected) (log10(CPM+1)); higher = more efficient recombination; sequences stand for … in AGTGCAGAGAAAATCGGCCAGTTTTCTCTGCCTGCAGTCCGCATGCCGT…AGATTTATGCAGCGGACTGCCTTTCTCCCAAAGTGATAAACCGGACAGTATCATGGACCGGTTTTCCCGGTAATCCGTATTTGCAAGGTTGGTTTCACT; site = the 11-nt target
Summary of the method: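 Recombination efficiency draws on barcodes counted at recombinant junctions in a pooled E. coli screen of targets paired with IS621 bridge RNA target-binding loops. The counts were converted to counts per million, averaged and corrected against the chloramphenicol/ampicillin LB agar control, then reported as log10(CPM+1). Selection plates held chloramphenicol/ampicillin/kanamycin with 0.1 mM IPTG, with two replicates per condition.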
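Also: IS621 recombinase and bridge RNA in Escherichia coli cells.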

Compared with “CTTGGGCCTTGGGTTCTAACCTGTTGCGG (site CTTGGGCCTCC)”, “CTTGGGCCTTGGGTTCTAACCTGTTGCGG (site GTTGGGGCTCC)” is lower in “recombinant barcode read abundance (log10)” value: 2.67 for the first, 0.0414 for the second.

First: CTTGGGTCTTGGGTTCTAACCTGTTGCCT (site CTTGGGTCTAG)
Second: CTTGGGTCTTGGGTTCTAACCTGTTGCCT (site CTTGGTTCTAG)
The “recombinant barcode read abundance (log10)” value of the first is higher: 0.998 for the first, 0.122 for the second.

“CTTTGTACTTGGGTTCTAACCTGTTGCCT (site CCTTGTACTAG)” and “CTTTGTACTTGGGTTCTAACCTGTTGCCT (site CTTTGTACTAG)” are within 0.2 log units of each other in “recombinant barcode read abundance (log10)” value: 0.265 for the first, 0.419 for the second.

First: GAAAACTCTTGGGTTCTAACCTGTTGCCT (site AGGTCTACTCC)
Second: GAAAACTCTTGGGTTCTAACCTGTTGCCT (site GAAAACTCTAG)
The “recombinant barcode read abundance (log10)” value of the first is lower: 0.104 for the first, 1.11 for the second.

Going from “GAAAAGTCTTGGGTTCTAACCTGTTGCTG (site CTCGCTCCTTG)” to “GAAAAGTCTTGGGTTCTAACCTGTTGCTG (site GAAAAGTCTCA)”, the “recombinant barcode read abundance (log10)” value rises from 0.185 to 1.28.

First: GAAAATCCTTGGGTTCTAACCTGTTGCCT (site GAAAATCCTAG)
Second: GAAAATCCTTGGGTTCTAACCTGTTGCCT (site GAAACTCCTAG)
The “recombinant barcode read abundance (log10)” value of the first is higher: 0.304 for the first, 0.0115 for the second.

First: GAAAATCCTTGGGTTCTAACCTGTTGCCT (site GAAAGTCCTAG)
Second: GAAAATCCTTGGGTTCTAACCTGTTGCCT (site GAAATTCCTAG)
The “recombinant barcode read abundance (log10)” value of the first is lower: 0.0177 for the first, 0.297 for the second.

“GAAACGGCTTGGGTTCTAACCTGTTGCCT (site GAAAAGGCTAG)” and “GAAACGGCTTGGGTTCTAACCTGTTGCCT (site GAAACGGCTAG)” are within 0.2 log units of each other in “recombinant barcode read abundance (log10)” value: 0.0884 for the first, 0.091 for the second.

Compared with “GAAACGGCTTGGGTTCTAACCTGTTGCCT (site GAAAGGGCTAG)”, “GAAACGGCTTGGGTTCTAACCTGTTGCCT (site GAAATGGCTAG)” is higher in “recombinant barcode read abundance (log10)” value: 0.0962 for the first, 0.323 for the second.

Compared with “GAAAGTTCTTGGGTTCTAACCTGTTGCCT (site GAAAGTTCTAG)”, “GAAAGTTCTTGGGTTCTAACCTGTTGCCT (site GCAAGTTCTAG)” is lower in “recombinant barcode read abundance (log10)” value: 1.15 for the first, 0.0711 for the second.

“GAAAGTTCTTGGGTTCTAACCTGTTGCCT (site GGAAGTTCTAG)” and “GAAAGTTCTTGGGTTCTAACCTGTTGCCT (site GTAAGTTCTAG)” are within 0.2 log units of each other in “recombinant barcode read abundance (log10)” value: 0.109 for the first, 0.153 for the second.

“GAAATGGCTTGGGTTCTAACCTGTTGCCT (site GAAAAGGCTAG)” and “GAAATGGCTTGGGTTCTAACCTGTTGCCT (site GAAACGGCTAG)” are within 0.2 log units of each other in “recombinant barcode read abundance (log10)” value: 0.0553 for the first, 0.237 for the second.

Compared with “GAAATGGCTTGGGTTCTAACCTGTTGCCT (site GAAAGGGCTAG)”, “GAAATGGCTTGGGTTCTAACCTGTTGCCT (site GAAATGGCTAG)” is higher in “recombinant barcode read abundance (log10)” value: 0.108 for the first, 0.309 for the second.

First: GAACACACTTGGGTTCTAACCTGTTGCCG (site GAACACACTCG)
Second: GAACACACTTGGGTTCTAACCTGTTGCCG (site GCACACACTCA)
The “recombinant barcode read abundance (log10)” value of the first is higher: 1.56 for the first, 0.794 for the second.

First: GAACACTCTTGGGTTCTAACCTGTTGCTG (site GAACACTCTCA)
Second: GAACACTCTTGGGTTCTAACCTGTTGCTG (site TAACACTCTAA)
The “recombinant barcode read abundance (log10)” value of the first is higher: 2.09 for the first, 0.113 for the second.

Compared with “GAACCTACTTGGGTTCTAACCTGTTGCCA (site GAACCTACTTG)”, “GAACCTACTTGGGTTCTAACCTGTTGCCA (site GGACCTACTTG)” is lower in “recombinant barcode read abundance (log10)” value: 1.16 for the first, 0.0691 for the second.

First: GAACTGCCTTGGGTTCTAACCTGTTGCTT (site CCTGACTCTGT)
Second: GAACTGCCTTGGGTTCTAACCTGTTGCTT (site GAACTGCCTAA)
The “recombinant barcode read abundance (log10)” value of the first is lower: 0.00853 for the first, 1.35 for the second.

Compared with “GAAGAGTCTTGGGTTCTAACCTGTTGCCT (site GAAGAGTCTAG)”, “GAAGAGTCTTGGGTTCTAACCTGTTGCCT (site GCAGAGTCTAG)” is lower in “recombinant barcode read abundance (log10)” value: 2.11 for the first, 0.0703 for the second.

Compared with “GAAGAGTCTTGGGTTCTAACCTGTTGCCT (site GGAGAGTCTAG)”, “GAAGAGTCTTGGGTTCTAACCTGTTGCCT (site GTAGAGTCTAG)” is higher in “recombinant barcode read abundance (log10)” value: 0.233 for the first, 1.29 for the second.

First: GAAGCGCCTTGGGTTCTAACCTGTTGCCT (site GAAGAGCCTAG)
Second: GAAGCGCCTTGGGTTCTAACCTGTTGCCT (site GAAGCGCCTAG)
The “recombinant barcode read abundance (log10)” value of the first is lower: 0.0683 for the first, 1.42 for the second.

First: GAAGCGCCTTGGGTTCTAACCTGTTGCCT (site GAAGGGCCTAG)
Second: GAAGCGCCTTGGGTTCTAACCTGTTGCCT (site GAAGTGCCTAG)
The “recombinant barcode read abundance (log10)” value of the first is lower: 0.0832 for the first, 0.397 for the second.

Compared with “GAAGCTACTTGGGTTCTAACCTGTTGCGT (site GAAGCTACTAC)”, “GAAGCTACTTGGGTTCTAACCTGTTGCGT (site GATGCTACTCC)” is lower in “recombinant barcode read abundance (log10)” value: 1.84 for the first, 0.0227 for the second.

“GAATCAACTTGGGTTCTAACCTGTTGCTT (site GAATCAACTAA)” and “GAATCAACTTGGGTTCTAACCTGTTGCTT (site GACTCGACTAA)” are within 0.2 log units of each other in “recombinant barcode read abundance (log10)” value: 0.0878 for the first, 0.119 for the second.

Going from “GAATGTTCTTGGGTTCTAACCTGTTGCTT (site GAATATTCTAA)” to “GAATGTTCTTGGGTTCTAACCTGTTGCTT (site GAATGTTCTAA)”, the “recombinant barcode read abundance (log10)” value rises from 0.0132 to 0.402.

Going from “GAATTAGCTTGGGTTCTAACCTGTTGCGG (site GAATTAGCTCC)” to “GAATTAGCTTGGGTTCTAACCTGTTGCGG (site GTATTAGCTCG)”, the “recombinant barcode read abundance (log10)” value falls from 1.71 to 0.287.

First: GACAGACCTTGGGTTCTAACCTGTTGCCT (site AACAGACCTAG)
Second: GACAGACCTTGGGTTCTAACCTGTTGCCT (site CACAGACCTAG)
The “recombinant barcode read abundance (log10)” value of the first is higher: 0.83 for the first, 0.193 for the second.

Going from “GACAGACCTTGGGTTCTAACCTGTTGCCT (site GACAGACCTAG)” to “GACAGACCTTGGGTTCTAACCTGTTGCCT (site TACAGACCTAG)”, the “recombinant barcode read abundance (log10)” value falls from 1.72 to 0.425.

First: GACAGCCCTTGGGTTCTAACCTGTTGCTG (site GACAGCCCTCA)
Second: GACAGCCCTTGGGTTCTAACCTGTTGCTG (site GTCAGCCCTCA)
The “recombinant barcode read abundance (log10)” value of the first is higher: 0.991 for the first, 0.0582 for the second.

“GACAGTACTTGGGTTCTAACCTGTTGCCT (site AACAGTACTAG)” and “GACAGTACTTGGGTTCTAACCTGTTGCCT (site CACAGTACTAG)” are within 0.2 log units of each other in “recombinant barcode read abundance (log10)” value: 0.165 for the first, 0.306 for the second.

“GACAGTACTTGGGTTCTAACCTGTTGCCT (site GACAGTACTAG)” and “GACAGTACTTGGGTTCTAACCTGTTGCCT (site TACAGTACTAG)” are within 0.2 log units of each other in “recombinant barcode read abundance (log10)” value: 0.714 for the first, 0.79 for the second.

“GACATATCTTGGGTTCTAACCTGTTGCCA (site GACATATCTCA)” and “GACATATCTTGGGTTCTAACCTGTTGCCA (site GACATATCTTG)” are within 0.2 log units of each other in “recombinant barcode read abundance (log10)” value: 0.337 for the first, 0.204 for the second.

Going from “GACATATCTTGGGTTCTAACCTGTTGCTT (site ACTGGTCCTCC)” to “GACATATCTTGGGTTCTAACCTGTTGCTT (site GACATATCTAA)”, the “recombinant barcode read abundance (log10)” value rises from 0.0369 to 0.358.

“GACATTCCTTGGGTTCTAACCTGTTGCTT (site CTATGAACTTG)” and “GACATTCCTTGGGTTCTAACCTGTTGCTT (site GACATTCCTAA)” are within 0.2 log units of each other in “recombinant barcode read abundance (log10)” value: 0.0749 for the first, 0.21 for the second.

Compared with “GACCTACCTTGGGTTCTAACCTGTTGCCT (site GACATACCTAG)”, “GACCTACCTTGGGTTCTAACCTGTTGCCT (site GACCTACCTAG)” is higher in “recombinant barcode read abundance (log10)” value: 0.0646 for the first, 1.8 for the second.

“GACCTACCTTGGGTTCTAACCTGTTGCCT (site GACGTACCTAG)” and “GACCTACCTTGGGTTCTAACCTGTTGCCT (site GACTTACCTAG)” are within 0.2 log units of each other in “recombinant barcode read abundance (log10)” value: 0.27 for the first, 0.359 for the second.

First: GACCTGACTTGGGTTCTAACCTGTTGCCA (site GACCTGACTTG)
Second: GACCTGACTTGGGTTCTAACCTGTTGCCA (site GACCTGGCTCG)
The “recombinant barcode read abundance (log10)” value of the first is higher: 0.463 for the first, 0.128 for the second.

Going from “GACGAGTCTTGGGTTCTAACCTGTTGCTA (site GACGAGTCTTA)” to “GACGAGTCTTGGGTTCTAACCTGTTGCTA (site GGCGAGTCTTA)”, the “recombinant barcode read abundance (log10)” value falls from 1.01 to 0.154.

Going from “GACGGACCTTGGGTTCTAACCTGTTGCAT (site GACGGACCTAT)” to “GACGGACCTTGGGTTCTAACCTGTTGCAT (site TGAAAGACTCG)”, the “recombinant barcode read abundance (log10)” value falls from 2.13 to 0.114.

Compared with “GACGGACCTTGGGTTCTAACCTGTTGCTT (site GACGGACCTAA)”, “GACGGACCTTGGGTTCTAACCTGTTGCTT (site GATGGCCCTAA)” is lower in “recombinant barcode read abundance (log10)” value: 0.832 for the first, 0.191 for the second.

Compared with “GACGGAGCTTGGGTTCTAACCTGTTGCTG (site GACGGAGCTCA)”, “GACGGAGCTTGGGTTCTAACCTGTTGCTG (site GACGGGGCTCT)” is lower in “recombinant barcode read abundance (log10)” value: 1.89 for the first, 0.224 for the second.

Compared with “GACGGATCTTGGGTTCTAACCTGTTGCTT (site GACGGATCTAA)”, “GACGGATCTTGGGTTCTAACCTGTTGCTT (site GACGGATCTAC)” is lower in “recombinant barcode read abundance (log10)” value: 0.557 for the first, 0.162 for the second.

“GACGGATCTTGGGTTCTAACCTGTTGCTT (site GACGGATCTAG)” and “GACGGATCTTGGGTTCTAACCTGTTGCTT (site GACGGATCTAT)” are within 0.2 log units of each other in “recombinant barcode read abundance (log10)” value: 0.197 for the first, 0.15 for the second.

“GACTCTCCTTGGGTTCTAACCTGTTGCCT (site GACTCTCCTAA)” and “GACTCTCCTTGGGTTCTAACCTGTTGCCT (site GACTCTCCTAC)” are within 0.2 log units of each other in “recombinant barcode read abundance (log10)” value: 0.21 for the first, 0.0378 for the second.
